This is an account of results in patent US6761913B2, “Extracts of celery seed for the prevention and treatment of pain, inflammation and gastrointestinal irritation” (priority 1998, dated 2004).

The test system of data set [1] is adjuvant arthritis (onset). Put plainly: Arthritis-ablating activity: test material incorporated into the arthritigenic adjuvant. Type of data set: in vivo, female Dark Agouti rats. To be noted: for activity in preventing (ablating) adjuvant arthritis: summary of Table 3; for effect on arthritis score (AS): most tested at 10 mg/rat, no effect = AS 2.5+.
In data set [2] the test system is production of prostaglandin E2. Put plainly: Production of prostaglandin E2 by pig gastric (fundic) mucosal explants. To be noted: 10 μmol/L, pure samples. The format is cell-based.
Data set [3] deals with adjuvant-induced arthritis. The experiment in a line: Experimental (adjuvant-induced) polyarthritis in rats, treatment of established arthritis. Type of data set: in vivo, rat. Conditions: for anti-inflammatory activity: tested at 50 mg/kg; for Mean % Inhibition of Arthritis Score / Mean % Inhibition of Fore Paw Swelling / Mean % Inhibition of Rear Paw Swelling: per os, mg/kg per day: A-CSE 350, S-CSE 50, Aspirin 150 × 2, Ibuprofen 50, Naproxen 25; for Mean % Inhibition of Arthritis Score: days 10-13, day 14, independent observer; for Mean % Inhibition of Fore Paw Swelling / Mean % Inhibition of Rear Paw Swelling: days 10-13, measured day 14.

The test system of data set [4] is NSAID-induced gastric lesions. The experiment in a line: Gastric injury caused by aspirin/NSAIDs in pre-sensitised (pre-inflamed) rats, gastroprotection assay. To be noted: for incidence of gastric lesions and bleeding: pre-inflamed rats, aspirin 100 mg/kg, Naproxen 10 mg/kg, Ketoprofen 5 mg/kg orally, Piroxicam 5 mg/kg intraperitoneally. The protocol: This model comprises oral or parenteral non-steroidal anti-inflammatory drugs (NSAIDs) given to rats whose gastrointestinal mucosa is pre-sensitized by prior development of arthritis or oleyl alcohol-induced inflammation. The animals are pre-sensitized by injection of an arthritogenic adjuvant or 0.1 ml oleyl alcohol 5 days prior to the assay.
The disease stress was induced five days previously either by injecting an arthritigenic adjuvant or 0.1 ml oleyl alcohol into the tail base to incite severe local inflammation. […] A-CSE or S-CSE was given orally within 20 seconds of the aspirin/NSAID. The number (N) and severity (S, graded on a score of 0 to 4 based on increasing area of injury) of gastric lesions as well as the percentage incidence of animals (%I) with gastric damage was recorded. The lesion index (LI) was then calculated as: LI=N/n+S/n+%I/10, where n=number of animals per group.
Gastroprotective activity was assessed in fasted (overnight) arthritic rats challenged with 50 mg/kg Ibuprofen given orally to induce gastric bleeding. Test preparations, dispersed with Tween-20, were given orally 20 seconds prior to Ibuprofen.
The procedure is further elaborated in K. Rainsford and M. Whitehouse [J. Pharm.

Data set [5] deals with carrageenan-induced paw edema. Put plainly: Carrageenan-induced paw edema (acute inflammation). Type of data set: in vivo, rat. Conditions: for ED50: Rattus norvegicus, oral, 45 minutes before carrageenan, read-out: effective dose for 50 percent reduction of the paw edema (ED50). The protocol:
To evaluate early i.e. rapid-acting therapeutic efficacy, carrageenan (1 mg in 0.1 ml saline) was injected into rear paws of rats to elicit a rapid onset (acute) inflammation. The ensuing paw edema was measured by the increase in paw thickness with a micrometer over the subsequent three hour period at hourly intervals.
The test drug formulations were given orally 45 minutes before injecting the carrageenan.

The test system of data set [6] is adjuvant arthritis (onset). Conditions: Haynes D R et al. Inflamm Res 45:159-165, 1996; cited from earlier work.

Turning to `C=C(C)[C@H]1CC=C(C)CC1` [Limonene], the “activity in preventing (ablating) adjuvant arthritis” value (shortened to “activity in preventing”) in data set [1] was “without such activity”. For the same molecule, in data set [2], the “effect on production of prostaglandin E2” value is “not”. Further, the anti-inflammatory activity result in data set [3] was “no anti-inflammatory or gastroprotective activity”.
`COc1ccc2cc([C@H](C)C(=O)O)ccc2c1` [Naproxen]: the “activity in preventing” value in data set [1] was “not shared”. In data set [3], the “Mean % Inhibition of Arthritis Score” value was determined as 64%, the “Mean % Inhibition of Fore Paw Swelling” value is 36% and the “Mean % Inhibition of Rear Paw Swelling” value is given as 57%.
Take `CCCCC1OC(=O)c2ccccc21` (stereo not shown) [Butylphthalide]: the “activity in preventing” value in data set [1] is recorded as “without such activity”. Moreover, the gastroprotective activity entry in data set [4] (tested at 50 mg/kg) is recorded as “no anti-inflammatory or gastroprotective activity”. In addition, the anti-inflammatory activity result in data set [3] is “no anti-inflammatory or gastroprotective activity”.
On to `CCCCCCCCCCC/C=C\CCCCC(=O)OC` [Petroselenic acid methyl ester], for which the “activity in preventing” value in data set [1] is “without such activity”.
With `O=C(O)CCCc1ccc(N(CCCl)CCCl)cc1` [chlorambucil], the “effect on arthritis score (AS)” value in data set [1] is reported as “no effect”.
On to `CC(=O)Oc1ccccc1C(=O)O` [Aspirin], for which the “activity in preventing” value in data set [1] is “not shared”. In data set [4], the “incidence of gastric lesions and bleeding” value was determined as 90%. Besides, the ED50 in data set [5] amounted to 200 mg/kg. For the same molecule, in data set [3], the “Mean % Inhibition of Arthritis Score” value came out at 25%, the “Mean % Inhibition of Fore Paw Swelling” value worked out at 24% and the “Mean % Inhibition of Rear Paw Swelling” value is 40%.
For `CN1C(C(=O)Nc2ccccn2)=C(O)c2ccccc2S1(=O)=O` [Piroxicam], the “incidence of gastric lesions and bleeding” value in data set [4] was 90%.
With `O=C(O)c1ccccc1Nc1cc(Cl)ccc1C(=O)O` [lobenzarit], in data set [6], the “ablating the onset of arthritis” value is recorded as “capable of ablating the onset of arthritis”.
On to `Nc1ccc(S(=O)(=O)c2ccc(N)cc2)cc1` [dapsone], for which the “effect on arthritis score (AS)” value in data set [1] is given as “no effect”.
Regarding `Cn1cnc([N+](=O)[O-])c1Sc1ncnc2nc[nH]c12` [azathioprine], the “effect on arthritis score (AS)” value in data set [1] is reported as “no effect”.
On to `COc1c2ccoc2cc2oc(=O)ccc12` [Bergapten], for which the “activity in preventing” value in data set [1] is “without such activity”.
Consider `O=c1c(O)c(-c2cc(O)c(O)c(O)c2)oc2cc(O)cc(O)c12` [myricetin], for which the “effect on production of prostaglandin E2” value in data set [2] is on record as “inhibited”.
For `CC(C)Cc1ccc(C(C)C(=O)O)cc1` (stereo not shown) [Ibuprofen], in data set [1], the “activity in preventing” value was “not shared”. Further, the “mean number of haemorrhagic lesions (+/−SD)” value in data set [4] (50 mg/kg, free acid or Nurofen, suspension 5 ml/kg, pre-inflamed female Wistar rats, n=90) is given as 42+/−06. Also, the “animals with no macroscopically detectable gastric bleeding” value in data set [4] (Ibuprofen 50 mg/kg with no celery (n=90 rats) or with celery extracts (n=67 rats)) was 7%. Also, the “inhibition of paw swelling” value in data set [5] (Ibuprofen 15 mg/kg, Ketoprofen 1 mg/kg, alone, n=6, not statistically significant) amounted to 19%. For the same molecule, the ED50 in data set [5] was 45 mg/kg. Also, in data set [3] (four successive oral doses, Ibuprofen 30 mg/kg, A-CSE 50 mg/kg, S-CSE 5 mg/kg), the “suppression of arthritic paw swelling / inhibition of polyarthritis” value is reported as 38%. Also, in data set [3], the “Mean % Inhibition of Arthritis Score” value stood at 36%, the “Mean % Inhibition of Fore Paw Swelling” value is recorded as 39% and the “Mean % Inhibition of Rear Paw Swelling” value is 38%.
`O=c1c(O)c(-c2ccc(O)c(O)c2)oc2cc(O)cc(O)c12` [quercetin]: the “effect on production of prostaglandin E2” value in data set [2] is “inhibited”.

A word on the ED50: it is the dose that gives a 50% effect, or the effect in half of the subjects.
